Laboratory results: publication PMC7148433 (Biochemical Journal, 2020)

Target: T1, lipocalin-type prostaglandin D synthase (L-PGDS) (Homo sapiens, UniProt P41222)
T1 sequence (P41222 23-190): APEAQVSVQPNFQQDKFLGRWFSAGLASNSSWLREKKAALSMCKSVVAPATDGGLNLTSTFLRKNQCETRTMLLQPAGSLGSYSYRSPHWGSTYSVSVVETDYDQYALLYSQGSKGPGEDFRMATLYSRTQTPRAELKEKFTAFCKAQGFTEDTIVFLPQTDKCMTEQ
Test: tryptophan fluorescence quenching
Assay type: binding

C=CC1=C(C)C2=Cc3c(C=C)c(C)c4[n]3[Fe][n]3c(c(C)c(CCC(=O)O)c3=CC3=NC(=C4)C(C)=C3CCC(=O)O)=CC1=N2 [heme]
Kd: 40 nM
